From EP4556003A1, “ANTI-OBESITY AND ANTI-DIABETIC ACTIVITY OF BROMINATED DITERPENES FROM RED ALGAE OF THE GENUS LAURENCIA AND APPLICATIONS THEREOF” (priority 2023, dated 2025)

What was measured:
[1] = references [10, 11]; cited from earlier work
COX2 = conditions: in vitro model, reference [11]; cited from earlier work
3T3-L1 cells [2] = assay: Quantitative PCR of relative mRNA expression in cell culture samples; type: cell-based, Mouse; conditions: cells differentiated in the presence of compound, 12 days; 1 at 62.5 µM, 2 at 25 µM
Protocol: (§1) Mouse 3T3-L1 preadipocytes were maintained in proliferation medium containing DMEM supplemented with 10% (v/v) heat inactivated NBCS and 1% (v/v) penicillin-streptomycin at 37 °C with 5% CO2, humidified atmosphere. Cells were seeded in T-75 flasks at a density of 25×10^4 cells/flask. Cultures never became completely confluent according to the manufacturer's instructions. They were passaged using trypsin-EDTA solution once they reached 70-80% confluency. For differentiation, 3T3-L1 cells were seeded and after 24 h (day 1), cell differentiation was induced by changing the medium to high glucose DMEM containing 10% (v/v) heat inactivated FBS, 1% penicillin-streptomycin, 10 µg/mL insulin, 0.25 µM Dexamethasone (GAP), 0.5 mM IBMX (=differentiation medium I). On day 3, the medium was changed to high glucose DMEM containing 10% FBS, 1% penicillin- streptomycin, and 10 µg/mL insulin (=differentiation medium II). Thereafter, medium was changed every other day switching between differentiation medium I and differentiation medium II until day 12 or 23, when adipocytes were harvested. Control group preadipocytes were seeded at a higher density and harvested after two days. Test compounds were administered either at the initiation of differentiation, or after 15 days of differentiation and with every medium change. To determine the effect on preadipocyte differentiation, cells were seeded and after 24 h they were treated with neorogioldiol. Neorogioldiol was maintained in the culture medium throughout cell differentiation period. To determine the effect of neorogioldiol on mature adipocytes, cells were seeded and induced to differentiate for 14 days, then on day 15 neorogioldiol was added to the differentiation medium for 24 h before cells were harvested. Each compound used was diluted in a 90% carbowax™ 400, 10% (v/v) absolute ethanol solution serving as a control solvent. The final concentration in culture was 0.09% (v/v) carbowax and 0.01% (v/v) ethanol. Compounds were used at the following concentrations: neorogioldiol (1) 62.5µM and neorogioltriol (2) 25µM.
Adipocytes and preadipocytes were harvested using the TRI Reagent®. RNA isolation was carried out according to the manufacturer's instructions. The purified RNA was quantified using the Nanodrop micro-volume spectrophotometer and 500 ng of each sample were used as a template for reverse transcription. cDNA synthesis was performed using the PrimeScriptTM RT reagent Kit (TaKaRa, RR037A) according to manufacturer's instructions. The cDNA produced by the above described procedure was diluted and used as a template for two-step quantitative PCR in a StepOnePlus™ Real-Time PCR System (Applied Biosystems™, 4376600) for a maximum of 40 cycles, as follows: start step 95 °C for 3 min, repeat steps: 95 °C for 15 s and 60 °C for 30 s. Amplification was performed using KAPA SYBR® FAST Universal qPCR kit (Kapa Biosystems, KK4618) according to manufacturer's instructions. Relative quantitative analysis was accomplished calculating fold-changes of gene expression as 2-(ΔΔCt), where ΔCt is (Ct (gene of interest) - Ct (housekeeping gene)). Ppib was used as internal control gene in 3T3L1 cells and in the fat fraction of mice abdominal fat, Rps9 was used as internal control gene in the stromal vascular fraction of mice abdominal fat and Actb was used as internal control gene in liver samples. Table 1. List of primers used for quantitative real-time PCR analysis.

NFKB1 = conditions: in vitro model, reference [11]; cited from earlier work
3T3-L1 adipocytes = assay: Oil red o staining of intracellular lipid accumulation; type: cell-based, Mouse; conditions: differentiation induced in the presence of compound, after 12 days; 1 at 62.5 µM, 2 at 25 µM
Protocol: as §1, with “Compounds were used at the following concentrations: neorogioldiol (1) 62.5µM and neorogioltriol (2) 25µM.” left out
Oil red o staining was applied to measure lipid accumulation intracellularly. Briefly, after 12 or 23 days of differentiation, the cell culture medium was removed and the 3T3-L1 adipocytes were fixed in 3.7% formaldehyde for 60 min at room temperature. Next, a solution of 0.21% oil red o was filtered using a 0.45 µm filter followed by incubation of the fixed cells for 45 min at room temperature. Excess dye was removed and cells were washed twice with PBS. Fresh PBS was added and the lipid droplets within the differentiated 3T3-L1 cells were visualized and photographed by microscopy. For quantitative analysis, oil red o staining was eluted with 100% isopropanol and the absorbance was measured at 510 nm using the Infinite® 200 PRO microplate plate reader (Tecan, Zurich, Switzerland).

3T3-L1 cells [3] = assay: MTT cell viability / proliferation assay; type: cell-based, Mouse
Protocol: The cell viability was evaluated using the MTT assay. 3T3-L1 cells were seeded at a density of 1×10^3 in 96-well plates and incubated for 24h. Compounds 1 and 2 were added in the wells at various concentrations and then incubated at 37 °C. Cells were treated with compound 1 at concentrations of 62.5, 46.875, 31.25, 15.625, 7.81 and 3.9 µM. Cells were treated with compound 2 at concentrations of 62.5, 25.0, 12.5, 6.25 and 3.125 µM. After 24, 48, and 72 h of treatment, MTT solution was added in the wells at a final concentration of 0.5 mg/mL and incubated for 4 h. Cell culture media with MTT was removed and the formazan crystals were dissolved in 100 µl/well isopropanol/HCl (0.4%) and the absorbance was measured at 600 nm using the Infinite® 200 PRO microplate plate reader (Tecan, Zurich, Switzerland).

[4] = reference [12]; cited from earlier work

Compound	analgesic properties in vivo [1]	anti-inflammatory properties in vivo [1]	COX2 levels (COX2)	Adipoq expression levels (3T3-L1 cells [2])	Dlkl mRNA expression (3T3-L1 cells [2])	Lep expression levels (3T3-L1 cells [2])	Slc2a4 expression levels (3T3-L1 cells [2])	NFKB1 levels (NFKB1)	lipid accumulation (3T3-L1 adipocytes)	concentrations that did not exhibit cytotoxicity (3T3-L1 cells [3]; concentration chosen for further analyses) [µM]	concentration with cytostatic effects (3T3-L1 cells [3]; three-day incubation (24, 48, 72 h), compound 1: after the first 24 h of treatment)	anti-inflammatory activity [4]
C=C([C@H]1CC[C@@](C)(O)[C@@H](Br)C1)[C@H]1[C@H](O)[C@@H]2[C@@H](CC[C@@]2(C)O)C1(C)C [neorogioltriol]	potent	potent	reducing	restricted the increase	did not change	restricted the increase	restricted the increase	reducing	increased lipid accumulation	25	above 25 µM	
O^11,15-cyclo-14-bromo-14,15-dihydrorogiol-3,11-diol												potent anti-inflammatory activity
